Results reported in patent US12416008B2, “Compositions and methods of use for small-molecule regulation of CRISPR-Cas9 activity using RNA aptamers” (priority 2019, dated 2025).
Marks after values point to notes of the source that are not given here.

B1: agRNAs created by Liu et al.: agRNAs created by Liu et al., designed to regulate gene expression via CRISPRi; SEQ ID NO: 74 (nucleic acid)
guide: ATGATAAAGCTGCTGCAATAGTTTTAGAGCTAGAAATAGCAAGTTAAAATAAGGCTAGTCCGTTATCAACTTGAAAAAGTGGCACCGAGTCGGTGCCAGCAGCTTTATCATATACCACGCGAAAGCGCCTTGGCAGATGATAAAGTTTTTTT

Legend:
galK 1 site = assay: red/white colony screen of editing efficiency at the galK 1 site (CREATE recombineering); assay type: cell-based, E. coli MG1655; conditions: for Editing Efficiency 1 mM Theo: induced for 3 hours with 1 mM theophylline; for Editing Efficiency no Theo: no theophylline, 3 hours recovery
Method: Candidates from this enriched library were analyzed to inform an improved library design. After three selection/counterselection steps, cells were plated on M63 selection medium^20 and 150 colonies were picked. Each isolated candidate was then transformed into unedited E. coli to screen for theophylline-responsive constructs using a red/white colony assay to quantify the percentage of edited bacteria. Colonies with an unedited galK site appear red whereas edited colonies appear white (FIG. 5). The percentage of white colonies is considered the editing efficiency. Gene editing was induced as previously described with or without adding theophylline and the editing efficiencies were compared.
The protocol established by Garst et al was mainly followed. LB containing kanamycin and chloramphenicol was inoculated with MGλ9 cells and grown overnight at 30° C. The stationary culture was diluted 100 fold in LB, containing chloramphenicol, kanamycin and 0.2% arabinose and grown to an OD600=0.4-0.6 in 25 mL LB. The culture was heat-shocked in a shaking waterbath at 42° C. for 15 minutes to induce expression of the lambda-red proteins from pSIM5. Then, the culture was washed in two volumes of ice-cold deionized water, resuspended in 500 μl deionized water and 50 μl of the cell suspension was electroporated with 200 ng of a CREATE plasmid that encodes gRNA and homology template. The transformants were recovered in 4 mL of LB, containing 0.2% arabinose and optionally 1 mM theophylline or 1 μM anhydrotetracycline (ATC), and shaken at 37° C. for 3 hours before plating on MacConkey Agar. To estimate the number of cfu, aliquots were plated on LB agar 1 hour after transformation.
In order to assess the frequency of gene editing, a red/white screen was used to visualize the introduction of a stop codon into the galK gene by CREATE. The original CREATE protocol was used for inducing gene editing and after 3 hours of recovery (with or without the agRNA ligand) a series of dilutions of the cultures were plated on MacConkey Agar plates containing 1% galactose. Bacterial colonies with a mutated galK* site appear white on the plates, whereas non-edited colonies appear red. The editing efficiency could be calculated by dividing the number of edited colonies over the total number of colonies. By comparing the editing efficiency in presence versus absence of the ligand, a dynamic range of the in vivo activity could be determined.
When screening the enriched libraries for switchable constructs, the transformants were recovered in 4 mL of LB broth, a dilution series was plated for every construct and the experiment was only carried out once due to the large volume of colonies screened (˜250 in total). When the constructs A9 and GU19 were characterized in detail, triplica of the experiment were carried out.

[1] = target: T1, Streptococcus pyogenes Cas9 (Streptococcus pyogenes serotype M1, UniProt Q99ZW2); assay: electrophoretic mobility shift assay (EMSA) of Cas9 binding to gRNAs; conditions: presence or absence of 250 μM theophylline
T1 construct: host or cells: E. coli BL21 (DE3) Rosetta
T1 sequence (Q99ZW2 whole entry): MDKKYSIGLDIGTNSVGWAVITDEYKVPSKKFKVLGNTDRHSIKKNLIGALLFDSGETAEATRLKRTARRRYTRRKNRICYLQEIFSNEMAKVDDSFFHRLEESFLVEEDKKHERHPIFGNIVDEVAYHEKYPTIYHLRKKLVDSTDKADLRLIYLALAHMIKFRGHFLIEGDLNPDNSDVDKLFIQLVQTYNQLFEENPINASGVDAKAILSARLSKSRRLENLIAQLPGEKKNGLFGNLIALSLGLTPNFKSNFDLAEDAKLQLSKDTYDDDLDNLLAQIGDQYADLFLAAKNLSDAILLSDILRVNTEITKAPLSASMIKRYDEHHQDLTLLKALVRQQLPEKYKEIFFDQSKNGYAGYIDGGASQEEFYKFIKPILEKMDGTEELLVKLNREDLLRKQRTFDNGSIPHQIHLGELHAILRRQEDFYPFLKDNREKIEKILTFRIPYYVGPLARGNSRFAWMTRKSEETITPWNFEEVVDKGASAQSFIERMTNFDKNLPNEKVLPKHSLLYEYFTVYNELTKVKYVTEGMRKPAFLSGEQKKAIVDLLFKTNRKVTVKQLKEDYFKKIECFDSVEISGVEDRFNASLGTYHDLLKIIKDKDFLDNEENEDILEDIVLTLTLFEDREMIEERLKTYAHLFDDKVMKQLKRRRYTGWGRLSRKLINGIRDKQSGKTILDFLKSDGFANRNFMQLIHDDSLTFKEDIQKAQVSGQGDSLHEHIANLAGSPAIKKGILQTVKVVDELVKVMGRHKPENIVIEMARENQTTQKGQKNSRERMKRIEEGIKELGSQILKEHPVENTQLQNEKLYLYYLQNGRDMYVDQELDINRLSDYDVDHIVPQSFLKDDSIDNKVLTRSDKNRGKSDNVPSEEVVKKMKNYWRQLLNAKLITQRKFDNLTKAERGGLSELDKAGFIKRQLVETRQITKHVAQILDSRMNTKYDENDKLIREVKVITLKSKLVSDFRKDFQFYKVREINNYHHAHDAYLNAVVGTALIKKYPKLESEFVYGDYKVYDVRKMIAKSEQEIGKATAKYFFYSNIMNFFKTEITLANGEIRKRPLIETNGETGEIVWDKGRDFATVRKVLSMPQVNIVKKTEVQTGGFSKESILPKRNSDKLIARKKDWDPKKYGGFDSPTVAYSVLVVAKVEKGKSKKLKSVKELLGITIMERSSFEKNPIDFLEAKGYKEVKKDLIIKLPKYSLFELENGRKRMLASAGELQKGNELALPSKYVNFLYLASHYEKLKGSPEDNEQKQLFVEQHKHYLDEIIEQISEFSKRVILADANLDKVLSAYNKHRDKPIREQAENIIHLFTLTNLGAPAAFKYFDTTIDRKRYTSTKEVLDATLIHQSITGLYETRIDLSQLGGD

galK1 site = assay: co-transformation of targeting gRNA plasmid with non-targeting gRNA plasmid (simulated library)
[2] = 9:1 targeting:non-targeting mixture

Row | Molecule | Editing Efficiency 1 mM Theo (galK 1 site) | Editing Efficiency no Theo (galK 1 site) | other results
1 | A1: agRNA cassette GGGGGGCCTATTTT, SEQ ID NO: 8 (expressed or natural sequence) | 66% | 0% | apparent binding affinity to the Cas9 protein [1]: the same apparent binding affinity to the Cas9 protein as the wild type gRNA, independent of theophylline
2 | GC18: agRNA cassette GATTGGCCGCAACC, SEQ ID NO: 68 (expressed or natural sequence) | 48% | 0% | –
3 | GC20: agRNA cassette GCAAGGCCAACACC, SEQ ID NO: 69 (expressed or natural sequence) | 64% | 0% | –
4 | GU1: agRNA cassette GACGGGCCTAATAT, SEQ ID NO: 34 (expressed or natural sequence) | 0% | 0% | –
5 | GU2: agRNA cassette GCGAGGCCTACTAT, SEQ ID NO: 35 (expressed or natural sequence) | 0% | 0% | –
6 | GU3: agRNA cassette GCAGGGCCTCATTT, SEQ ID NO: 36 (expressed or natural sequence) | 0% | 0% | –
7 | GU4: agRNA cassette GATTGGCCATACAT, SEQ ID NO: 37 (expressed or natural sequence) | 0% | 0% | –
8 | GU5: agRNA cassette GGTTGGCCTAATAT, SEQ ID NO: 38 (expressed or natural sequence) | 2% | 0% | –
9 | GU6: agRNA cassette GGACGGCCAAGCAT, SEQ ID NO: 39 (expressed or natural sequence) | 1% | 0% | –
10 | GU8: agRNA cassette GGCAGGCCTCTTCT, SEQ ID NO: 40 (expressed or natural sequence) | 1% | 0% | –
11 | GU9: agRNA cassette GTTCGGCCCCGACT, SEQ ID NO: 41 (expressed or natural sequence) | 0% | 0% | –
12 | GU10: agRNA cassette GTACGGCCCATAAT, SEQ ID NO: 42 (expressed or natural sequence) | 0% | 0% | –
13 | GU11: agRNA cassette GTATGGCCTCGGAT, SEQ ID NO: 43 (expressed or natural sequence) | 0% | 0% | –
14 | GU12: agRNA cassette GCCGGGCCTTTTTT, SEQ ID NO: 44 (expressed or natural sequence) | 7% | 0% | –
15 | GU13: agRNA cassette GGCCGGCCAAGCAT, SEQ ID NO: 45 (expressed or natural sequence) | 6% | 0% | –
16 | GU14: agRNA cassette GACTGGCCTATAAT, SEQ ID NO: 46 (expressed or natural sequence) | 2% | 0% | –
17 | GU15: agRNA cassette GGACGGCCTACAAT, SEQ ID NO: 47 (expressed or natural sequence) | 11% | 0% | –
18 | GU16: agRNA cassette GGGAGGCCAGCGAT, SEQ ID NO: 48 (expressed or natural sequence) | 0% | 1% | –
19 | GU17: agRNA cassette GTAAGGCCGCCGAT, SEQ ID NO: 49 (expressed or natural sequence) | 0% | 0% | –
20 | GU18: agRNA cassette GATTGGCCTACGGT, SEQ ID NO: 50 (expressed or natural sequence) | 1% | 0% | –
21 | RG53: agRNA cassette AGTGAGCTAAAAAT, SEQ ID NO: 3 (expressed or natural sequence) | 22% | 0% | –
22 | sgRNA: wild-type single guide RNA; cassette AGAGCTAGCAAGTT, SEQ ID NO: 1 (chemistry not given here) | 89%** | 85%** | plated bacteria carrying the non-targeting plasmid (galK1 site; [2]): 84.8%; plated bacteria expected to carry the targeting CREATE plasmid (galK1 site; [2]): 15.2%; # of unedited colonies carrying non-targeting gRNA plasmid (galK1 site; 16 unedited colonies picked, 20 ng non-targeting + 180 ng targeting plasmid, 1 mM theophylline): 16/16; enrichment of the non-targeting plasmids (galK1 site; listed as wild type gRNA): 8.6±0.1 fold; enrichment of the non-targeting plasmids (galK1 site; listed as wt sgRNA): ~8.5 fold; percentage of edited cells (galK1 site; plasmid mixture 90% targeting galK1, 10% non-targeting (eGFP) gRNA, listed as wild type gRNA): 14%; percentage of edited cells (galK1 site; plasmid mixture 90% targeting galK1, 10% non-targeting (eGFP) gRNA, listed as wt sgRNA): 13.5%; percentage of edited cells (galK1 site; transformed exclusively with the targeting plasmid, listed as wild type gRNA): 89%; percentage of edited cells (galK1 site; transformed exclusively with the targeting plasmid, listed as wt sgRNA): 88.9%
23 | B1 | – | – | gene editing activity and ligand dependence (in words) (galK 1 site; with and without aptamer ligand): lead to gene editing with and without the aptamer-ligand
